# Reference: patent US10941157B2, “Pesticidal compositions and uses thereof” (Gilead Apollo, LLC, priority 2015, dated 2021)
# Where two headings read alike, the source gives them in different places.
# Tests used:
# Assay type in all cases: cell-based
# [1] = system: Rhizoctonia solani (Rs); assay: In vitro pathogen growth inhibition assay, Rs (mycelial plugs); settings: Rhizoctonia solani, 48 h
# Outline: (§1)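 Spores of Dm, Fv and Pc were diluted in 17% V8 liquid medium; Rs used 1.5 mm mycelial plugs in ¼ PDB. Compounds from 2.5 mg/ml DMSO stocks were combined with inoculum, growth was read by OD600 at 24 and 48 h with blank subtraction, and the reported value is the concentration giving ≥90% inhibition.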
# [2] = system: Fusarium moniliforme (Fm); assay: In vitro pathogen growth inhibition assay, Fm; settings: Fusarium verticillioides
# Outline: (§2)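 Spores in 17% V8 liquid medium, or 1.5 mm Rs mycelial plugs in ¼ PDB, incubated with compound; final concentration checked by OD600 for precipitation. OD readings at 24 and 48 h, blank-subtracted, plus visual ratings; value is concentration giving ≥90% growth inhibition.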
# [3] = system: Fusarium virguliforme (Fv); assay: In vitro pathogen growth inhibition assay, Fv
# Outline: as §1
# [4] = system: Phytophthora capsici (Pc); assay: In vitro pathogen growth inhibition assay, Pc; settings: 48 h
# Outline: as §1
# [5] = system: Septoria tritici (St); assay: In vitro pathogen growth inhibition assay, St; settings: Zymoseptoria tritici, 48 h
# Outline: as §2
# [6] = system: Collectotrichum graminicola (Cg); assay: In vitro pathogen growth inhibition assay, Cg; settings: 48 h
# Outline: as §2
# [7] = system: Diplodia maydis (Dm); assay: In vitro pathogen growth inhibition assay, Dm; settings: Stenocarpella maydis, 48 h
# Outline: as §1
# [8] = system: Botrtyis cinerea (Bc); assay: In vitro pathogen growth inhibition assay, Bc; settings: 48 h
# Outline: as §2
# [9] = ≥90% inhibition, mycelial plugs, 48 hours vs 2% DMSO control, read-out: Compound Concentration (ppm) sufficient for ≥90% inhibition of growth, Rs
# [10] = ≥90% inhibition, 48 hours vs 2% DMSO control, read-out: Compound Concentration (ppm) sufficient for ≥90% inhibition of growth, Fm
# [11] = ≥90% inhibition, 48 hours vs 2% DMSO control, read-out: Compound Concentration (ppm) sufficient for ≥90% inhibition of growth, Fv
# [12] = ≥90% inhibition, 48 hours vs 2% DMSO control, read-out: Compound Concentration (ppm) sufficient for ≥90% inhibition of growth, Pc
# [13] = ≥90% inhibition, 48 hours vs 2% DMSO control, read-out: Compound Concentration (ppm) sufficient for ≥90% inhibition of growth, St
# [14] = ≥90% inhibition, 48 hours vs 2% DMSO control, read-out: Compound Concentration (ppm) sufficient for ≥90% inhibition of growth, Cg
# [15] = ≥90% inhibition, 48 hours vs 2% DMSO control, read-out: Compound Concentration (ppm) sufficient for ≥90% inhibition of growth, Dm
# [16] = ≥90% inhibition, 48 hours vs 2% DMSO control, read-out: Compound Concentration (ppm) sufficient for ≥90% inhibition of growth, Bc
# [17] = ≥90% growth inhibition, mycelial plugs, 48 hours, vs 2% DMSO control, read-out: Compound Concentration (ppm) sufficient for ≥90% inhibition of Rs
# [18] = ≥90% growth inhibition, 48 hours, vs 2% DMSO control, read-out: Compound Concentration (ppm) sufficient for ≥90% inhibition of Fm
# [19] = ≥90% growth inhibition, 48 hours, vs 2% DMSO control, read-out: Compound Concentration (ppm) sufficient for ≥90% inhibition of Fv
# [20] = ≥90% growth inhibition, 48 hours, vs 2% DMSO control, read-out: Compound Concentration (ppm) sufficient for ≥90% inhibition of Pc
# [21] = ≥90% growth inhibition, 48 hours, vs 2% DMSO control, read-out: Compound Concentration (ppm) sufficient for ≥90% inhibition of St
# [22] = ≥90% growth inhibition, 48 hours, vs 2% DMSO control, read-out: Compound Concentration (ppm) sufficient for ≥90% inhibition of Cg
# [23] = ≥90% growth inhibition, 48 hours, vs 2% DMSO control, read-out: Compound Concentration (ppm) sufficient for ≥90% inhibition of Dm
# [24] = ≥90% growth inhibition, 48 hours, vs 2% DMSO control, read-out: Compound Concentration (ppm) sufficient for ≥90% inhibition of Bc
# [25] = concentration sufficient to ≥90% inhibition of growth, 48 hours vs 2% DMSO control, read-out: Compound Concentration (ppm) for ≥90% inhibition, Rs
# [26] = concentration sufficient to ≥90% inhibition of growth, 48 hours vs 2% DMSO control, read-out: Compound Concentration (ppm) for ≥90% inhibition, Fm
# [27] = concentration sufficient to ≥90% inhibition of growth, 48 hours vs 2% DMSO control, read-out: Compound Concentration (ppm) for ≥90% inhibition, Fv
# [28] = concentration sufficient to ≥90% inhibition of growth, 48 hours vs 2% DMSO control, read-out: Compound Concentration (ppm) for ≥90% inhibition, Pc
# [29] = concentration sufficient to ≥90% inhibition of growth, 48 hours vs 2% DMSO control, read-out: Compound Concentration (ppm) for ≥90% inhibition, St
# [30] = concentration sufficient to ≥90% inhibition of growth, 48 hours vs 2% DMSO control, read-out: Compound Concentration (ppm) for ≥90% inhibition, Cg
# [31] = concentration sufficient to ≥90% inhibition of growth, 48 hours vs 2% DMSO control, read-out: Compound Concentration (ppm) for ≥90% inhibition, Dm
# [32] = concentration sufficient to ≥90% inhibition of growth, 48 hours vs 2% DMSO control, read-out: Compound Concentration (ppm) for ≥90% inhibition, Bc
SMILES,"IC90 [1, 9]","IC90 [2, 10]","IC90 [3, 11]","IC90 [4, 12]","IC90 [5, 13]","IC90 [6, 14]","IC90 [7, 15]","IC90 [8, 16]","IC90 [1, 17]","IC90 [2, 18]","IC90 [3, 19]","IC90 [4, 20]","IC90 [5, 21]","IC90 [6, 22]","IC90 [7, 23]","IC90 [8, 24]",also measured
COc1ccc(F)cc1[C@H](Cn1c(=O)n(C(C)(C)C(=O)N2CCCC2)c(=O)c2c(C)c(-c3ncco3)sc21)OC(C)C [Compound I-017],0.4 mg/L,0.08 mg/L,0.4 mg/L,> 50 mg/L,> 10 mg/L,0.08 mg/L,≥ 0.08 mg/L,0.4 mg/L,,,,,,,,,
COc1ccc(F)cc1[C@H](Cn1c(=O)n(C(C)(C)C(=O)NC(C)C)c(=O)c2c(C)c(-n3nccn3)sc21)OCCC(N)=O [Compound I-142],2 mg/L,0.4 mg/L,0.4 mg/L,≥ 50 mg/L,> 50 mg/L,10 mg/L,50 mg/L,2 mg/L,,,,,,,,,
Cc1c(-n2nccn2)sc2c1c(=O)n(C(C)(C)C(=O)NC(C)C)c(=O)n2C[C@H](OCC(C)(C)O)c1cc(F)ccc1OCC#N [Compound I-278],,,,,,,,,0.4 mg/L,0.4 mg/L,2 mg/L,10 mg/L,> 50 mg/L,0.4 mg/L,2 mg/L,2 mg/L,
COc1ccc(F)cc1[C@H](Cn1c(=O)n(C(C)(C)C(=O)N2CCCC2)c(=O)c2c(C)c(-n3nccn3)sc21)OC[C@H](C)O [Compound I-133],≥ 2 mg/L,0.4 mg/L,0.4 mg/L,50 mg/L,≥ 50 mg/L,0.4 mg/L,2 mg/L,2 mg/L,,,,,,,,,
COc1ccc(Br)cc1[C@H](Cn1c(=O)n(C(C)(C)C(=O)NC(C)C)c(=O)c2c(C)c(-n3nccn3)sc21)OCC(C)(C)C#N [Compound I-270],,,,,,,,,> 50 mg/L,0.08 mg/L,0.4 mg/L,> 50 mg/L,> 50 mg/L,2 mg/L,2 mg/L,0.4 mg/L,
COc1ccc(F)cc1[C@H](Cn1c(=O)n(C(C)(C)C(N)=O)c(=O)c2c(C)c(-n3cccn3)sc21)OCCC#N [Compound I-190],,,,,,,,,,,,,,,,,"IC90 [1, 25]: 10 mg/L; IC90 [2, 26]: 10 mg/L; IC90 [3, 27]: 50 mg/L; IC90 [4, 28]: > 50 mg/L; IC90 [5, 29]: > 50 mg/L; IC90 [6, 30]: > 50 mg/L; IC90 [7, 31]: > 50 mg/L; IC90 [8, 32]: 10 mg/L"
COc1ccc(F)cc1[C@@H](Cn1c(=O)n(C(C)(C)C(=O)NC(C)C)c(=O)c2c(C)c(-n3nccn3)sc21)OC(C)=O [Compound I-322],,,,,,,,,,,,,,,,,"IC90 [1, 25]: > 50 mg/L; IC90 [2, 26]: 10 mg/L; IC90 [3, 27]: ≥ 10 mg/L; IC90 [4, 28]: > 50 mg/L; IC90 [5, 29]: > 50 mg/L; IC90 [6, 30]: > 50 mg/L; IC90 [7, 31]: > 50 mg/L; IC90 [8, 32]: 10 mg/L"
COc1ccc(F)cc1[C@H](Cn1c(=O)n(C(C)(C)C(=O)N2CCCC2)c(=O)c2c(C)c(-n3cccn3)sc21)OC1CCOCC1 [Compound I-045],2 mg/L,0.08 mg/L,10 mg/L,> 50 mg/L,> 50 mg/L,≥ 0.4 mg/L,≥ 2 mg/L,2 mg/L,,,,,,,,,
COc1ccc(F)cc1[C@H](Cn1c(=O)n([C@@H](C)C(=O)NC(C)C)c(=O)c2c(C)c(-n3nccn3)sc21)OCC(C)(C)C#N [Compound I-254],,,,,,,,,> 50 mg/L,2 mg/L,> 50 mg/L,> 50 mg/L,> 50 mg/L,> 50 mg/L,≥ 10 mg/L,2 mg/L,
COCCO[C@@H](Cn1c(=O)n(C(C)(C)C(=O)NC2CCCCC2)c(=O)c2c(C)c(-n3cccn3)sc21)c1cc(F)ccc1OC [Compound I-293],,,,,,,,,> 50 mg/L,2 mg/L,50 mg/L,> 50 mg/L,> 50 mg/L,> 50 mg/L,> 50 mg/L,10 mg/L,
